Test results as given in article PMC6979384, “Characterization of the plant homeodomain (PHD) reader family for their histone tail interactions” (Epigenetics & Chromatin, 2020).

Assays:
Test in all cases: Histone peptide microarray
Format in all cases: binding, human
Conditions in all cases: histone peptide array, arrays performed twice, n of 4
DPF2 (PPC2W2) = test system: DPF2 (PPC2W2)
How it was run: (§1)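 Recombinant GST-PHD protein at 0.5 μM; 293-member modified histone peptide array; signals averaged from four repeats ± SD.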

PHRF1 (RP) = test system: PHRF1 (RP)
How it was run: as §1

KDM5A (1) = test system: KDM5A (1)
How it was run: as §1

PHF2 = test system: PHF2
How it was run: as §1

KDM7A = test system: KDM7A
How it was run: as §1

KDM4C (TTP) = test system: KDM4C (TTP)
How it was run: as §1

DIDO1 = test system: DIDO1
How it was run: as §1

ING1 = test system: ING1
How it was run: as §1

ING5 = test system: ING5
How it was run: as §1

AIRE (PP) = test system: AIRE (PP)
How it was run: as §1

MORC3 (CW) = test system: MORC3 (CW)
How it was run: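 GST-tagged PHD readers, 0.5 μM, probed on a microarray of 293 synthetic histone peptides carrying single or combinatorial PTMs (optimized Petell protocol). Signals are averaged over 4 replicates and expressed as relative binding.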

CHD5 (PCC) = test system: CHD5 (PCC)
How it was run: as §1

KDM5B (3) = test system: KDM5B (3)
How it was run: as §1

RAG2 = test system: RAG2
How it was run: as §1

PHF23 = test system: PHF23
How it was run: as §1

CHD4 (PPCC) = test system: CHD4 (PPCC)
How it was run: as §1

SP140L = test system: SP140L
How it was run: as §1

KDM5A (3) = test system: KDM5A (3)
How it was run: as §1

PHF13 = test system: PHF13
How it was run: as §1

BPTF (PB) = test system: BPTF (PB)
How it was run: as §1

MLL5 = test system: MLL5
How it was run: as §1

TRIM66 (PB) = test system: TRIM66 (PB)
How it was run: as §1

PHF21A = test system: PHF21A
How it was run: as §1

ING2 = test system: ING2
How it was run: as §1

ING3 = test system: ING3
How it was run: as §1

ING4 = test system: ING4
How it was run: as §1

BAZ2B = test system: BAZ2B
How it was run: as §1

TAF3 = test system: TAF3
How it was run: as §1

PHF8 = test system: PHF8
How it was run: as §1

CHD5 (PPCC) = test system: CHD5 (PPCC)
How it was run: as §1

KDM5B (1) = test system: KDM5B (1)
How it was run: as §1

[1] = GST-tagged reader, PPCC = Dual PHD + Dual Chromodomain
[2] = GST-tagged reader, PB = PHD + Bromodomain

## H4K5K8but (1-23): H4 1-23
DPF2 (PPC2W2); GST-tagged reader, PPC2W2 = Dual PHD + C2W2-type Zn-finger
  Array Heatmap signal, DPF2 (PPC2W2): 0.658
PHRF1 (RP); GST-tagged reader
  Array Heatmap signal, PHRF1 (RP): 0.4216
KDM5A (1); GST-tagged reader
  Array Heatmap signal, KDM5A (1): 0.515
PHF2; GST-tagged reader
  Array Heatmap signal, PHF2: 0.4396
KDM7A; GST-tagged reader
  Array Heatmap signal, KDM7A: 0.4497
KDM4C (TTP); GST-tagged reader, TTP = Tandem Tudor domain + PHD
  Array Heatmap signal, KDM4C (TTP): 0.558
DIDO1; GST-tagged reader
  Array Heatmap signal, DIDO1: 0.6112
ING1; GST-tagged reader
  Array Heatmap signal, ING1: 0.5231
ING5; GST-tagged reader
  Array Heatmap signal, ING5: 0.3968
AIRE (PP); GST-tagged reader
  Array Heatmap signal, AIRE (PP): 0.5575
MORC3 (CW); GST-tagged reader, CW = CW-type Zn-finger
  Array Heatmap signal, MORC3 (CW): 0.3933
CHD5 (PCC); GST-tagged reader, PCC = PHD + Dual Chromodomain
  Array Heatmap signal, CHD5 (PCC): 0.8285
KDM5B (3); GST-tagged reader
  Array Heatmap signal, KDM5B (3): 0.5218
RAG2; GST-tagged reader
  Array Heatmap signal, RAG2: 0.2516
PHF23; GST-tagged reader
  Array Heatmap signal, PHF23: 0.5226
CHD4 (PPCC); [1]
  Array Heatmap signal, CHD4 (PPCC): 0.6049
SP140L; GST-tagged reader
  Array Heatmap signal, SP140L: 0.399
KDM5A (3); GST-tagged reader
  Array Heatmap signal, KDM5A (3): 0.457
PHF13; GST-tagged reader
  Array Heatmap signal, PHF13: 0.6376
BPTF (PB); [2]
  Array Heatmap signal, BPTF (PB): 0.3688
MLL5; GST-tagged reader
  Array Heatmap signal, MLL5: 0.5399
TRIM66 (PB); [2]
  Array Heatmap signal, TRIM66 (PB): 0.5587
PHF21A; GST-tagged reader
  Array Heatmap signal, PHF21A: 0.5071
ING2; GST-tagged reader
  Array Heatmap signal, ING2: 0.5955
ING3; GST-tagged reader
  Array Heatmap signal, ING3: 0.4809
ING4; GST-tagged reader
  Array Heatmap signal, ING4: 0.4968
BAZ2B; GST-tagged reader
  Array Heatmap signal, BAZ2B: 0.52
TAF3; GST-tagged reader
  Array Heatmap signal, TAF3: 0.2895
PHF8; GST-tagged reader
  Array Heatmap signal, PHF8: 0.4044
CHD5 (PPCC); [1]
  Array Heatmap signal, CHD5 (PPCC): 0.592
KDM5B (1); GST-tagged reader
  Array Heatmap signal, KDM5B (1): 0.7062

## H4K5ac + K8ac + K12ac + K16ac: H4 1-23
DPF2 (PPC2W2); GST-tagged DPF2 (PPC2W2 = Dual PHD + C2W2-type Zn-finger)
  Array Heatmap signal, DPF2 (PPC2W2): 0.6508
PHRF1 (RP); GST-tagged PHRF1 (RP)
  Array Heatmap signal, PHRF1 (RP): 0.436
KDM5A (1); GST-tagged KDM5A (1)
  Array Heatmap signal, KDM5A (1): 0.4894
PHF2; GST-tagged PHF2
  Array Heatmap signal, PHF2: 0.443
KDM7A; GST-tagged KDM7A
  Array Heatmap signal, KDM7A: 0.4726
KDM4C (TTP); GST-tagged KDM4C (TTP = Tandem Tudor domain + PHD)
  Array Heatmap signal, KDM4C (TTP): 0.5368
DIDO1; GST-tagged DIDO1
  Array Heatmap signal, DIDO1: 0.6106
ING1; GST-tagged ING1
  Array Heatmap signal, ING1: 0.4878
ING5; GST-tagged ING5
  Array Heatmap signal, ING5: 0.371
AIRE (PP); GST-tagged AIRE (PP)
  Array Heatmap signal, AIRE (PP): 0.5646
MORC3 (CW); GST-tagged MORC3 (CW = CW-type Zn-finger)
  Array Heatmap signal, MORC3 (CW): 0.3746
CHD5 (PCC); GST-tagged CHD5 (PCC = PHD + Dual Chromodomain)
  Array Heatmap signal, CHD5 (PCC): 0.8346
KDM5B (3); GST-tagged KDM5B (3)
  Array Heatmap signal, KDM5B (3): 0.5025
RAG2; GST-tagged RAG2
  Array Heatmap signal, RAG2: 0.2398
PHF23; GST-tagged PHF23
  Array Heatmap signal, PHF23: 0.4802
CHD4 (PPCC); GST-tagged CHD4 (PPCC = Dual PHD + Dual Chromodomain)
  Array Heatmap signal, CHD4 (PPCC): 0.5585
SP140L; GST-tagged SP140L
  Array Heatmap signal, SP140L: 0.3494
KDM5A (3); GST-tagged KDM5A (3)
  Array Heatmap signal, KDM5A (3): 0.4106
PHF13; GST-tagged PHF13
  Array Heatmap signal, PHF13: 0.598
BPTF (PB); GST-tagged BPTF (PB = PHD + Bromodomain)
  Array Heatmap signal, BPTF (PB): 0.4178
MLL5; GST-tagged MLL5
  Array Heatmap signal, MLL5: 0.5322
TRIM66 (PB); GST-tagged TRIM66 (PB = PHD + Bromodomain)
  Array Heatmap signal, TRIM66 (PB): 0.6818
PHF21A; GST-tagged PHF21A
  Array Heatmap signal, PHF21A: 0.4657
ING2; GST-tagged ING2
  Array Heatmap signal, ING2: 0.572
ING3; GST-tagged ING3
  Array Heatmap signal, ING3: 0.4391
ING4; GST-tagged ING4
  Array Heatmap signal, ING4: 0.4555
BAZ2B; GST-tagged BAZ2B
  Array Heatmap signal, BAZ2B: 0.5369
TAF3; GST-tagged TAF3
  Array Heatmap signal, TAF3: 0.2729
PHF8; GST-tagged PHF8
  Array Heatmap signal, PHF8: 0.3604
CHD5 (PPCC); GST-tagged CHD5 (PPCC = Dual PHD + Dual Chromodomain)
  Array Heatmap signal, CHD5 (PPCC): 0.5534
KDM5B (1); GST-tagged KDM5B (1)
  Array Heatmap signal, KDM5B (1): 0.7197
